Results as given in ChEMBL document CHEMBL4627246, “Pyroglutamide-Based P2X7 Receptor Antagonists Targeting Inflammatory Bowel Disease” (J Med Chem, 2020).

Experiments:
Format in all cases: cell-based
SK-MEL-2 = assay: Cytotoxicity against human SK-MEL-2 cells assessed as effect on cell growth at 10 uM incubated for 48 hrs by sulforhodamine B assay; conditions: sk-mel-2, 48 h
UACC-62 = assay: Cytotoxicity against human UACC62 cells assessed as effect on cell growth at 10 uM incubated for 48 hrs by sulforhodamine B assay; conditions: uacc-62, 48 h
OVCAR-8 = assay: Cytotoxicity against human OVCAR8 cells assessed as effect on cell growth at 10 uM incubated for 48 hrs by sulforhodamine B assay; conditions: ovcar-8, 48 h
MDA-MB-435 = assay: Cytotoxicity against human MDA-MB-435 cells assessed as effect on cell growth at 10 uM incubated for 48 hrs by sulforhodamine B assay; conditions: mda-mb-435, 48 h
MCF7 = assay: Cytotoxicity against human MCF7 cells assessed as effect on cell growth at 10 uM incubated for 48 hrs by sulforhodamine B assay; conditions: mcf7, 48 h
UO-31 = assay: Cytotoxicity against human UO31 cells assessed as effect on cell growth at 10 uM incubated for 48 hrs by sulforhodamine B assay; conditions: uo-31, 48 h
RXF 393 = assay: Cytotoxicity against human RXF393 cells assessed as effect on cell growth at 10 uM incubated for 48 hrs by sulforhodamine B assay; conditions: rxf 393, 48 h
SNB-19 = assay: Cytotoxicity against human SNB19 cells assessed as effect on cell growth at 10 uM incubated for 48 hrs by sulforhodamine B assay; conditions: snb-19, 48 h
SF-539 = assay: Cytotoxicity against human SF539 cells assessed as effect on cell growth at 10 uM incubated for 48 hrs by sulforhodamine B assay; conditions: sf-539, 48 h
HCT-116 = assay: Cytotoxicity against human HCT116 cells assessed as effect on cell growth at 10 uM incubated for 48 hrs by sulforhodamine B assay; conditions: hct-116, 48 h
DU-145 = assay: Cytotoxicity against human DU145 cells assessed as effect on cell growth at 10 uM incubated for 48 hrs by sulforhodamine B assay; conditions: du-145, 48 h
HT-29 = assay: Cytotoxicity against human HT-29 cells assessed as effect on cell growth at 10 uM incubated for 48 hrs by sulforhodamine B assay; conditions: ht-29, 48 h
OVCAR-3 = assay: Cytotoxicity against human OVCAR3 cells assessed as effect on cell growth at 10 uM incubated for 48 hrs by sulforhodamine B assay; conditions: ovcar-3, 48 h
TK-10 = assay: Cytotoxicity against human TK10 cells assessed as effect on cell growth at 10 uM incubated for 48 hrs by sulforhodamine B assay; conditions: tk-10, 48 h
A498 = assay: Cytotoxicity against human A498 cells assessed as effect on cell growth at 10 uM incubated for 48 hrs by sulforhodamine B assay; conditions: a498, 48 h
T47D = assay: Cytotoxicity against human T47D cells assessed as effect on cell growth at 10 uM incubated for 48 hrs by sulforhodamine B assay
HCC 2998 = assay: Cytotoxicity against human HCC2998 cells assessed as effect on cell growth at 10 uM incubated for 48 hrs by sulforhodamine B assay; conditions: hcc 2998, 48 h
OVCAR-5 = assay: Cytotoxicity against human OVCAR5 cells assessed as effect on cell growth at 10 uM incubated for 48 hrs by sulforhodamine B assay; conditions: ovcar-5, 48 h
MDA-MB-468 = assay: Cytotoxicity against human MDA-MB-468 cells assessed as effect on cell growth at 10 uM incubated for 48 hrs by sulforhodamine B assay; conditions: mda-mb-468, 48 h
786-0 = assay: Cytotoxicity against human 786-0 cells assessed as effect on cell growth at 10 uM incubated for 48 hrs by sulforhodamine B assay; conditions: 786-0, 48 h

Measured: Activity

COc1ccc(CN2C(=O)CC[C@H]2C(=O)NCCc2ccccc2)cc1
Non-Toxic: all assays above

COC(=O)[C@@H]1C/C(=C\NCc2ccc(Cl)cc2Cl)C(=O)N1C(=O)OC
Non-Toxic: all assays above

O=C(NCc1ccc(Cl)cc1Cl)[C@@H]1CCC(=O)N1c1cscn1
Non-Toxic: all assays above

CCCCCCN1C(=O)[C@@H]2C/C(=C\N(C)C)C(=O)N2C1N(C)C (stereo not given in full)
Non-Toxic: all assays above

COc1cc(CNC(=O)[C@@H]2CCC(=O)N2)cc(OC)c1OC
Non-Toxic: all assays above

O=C(NCC1CCCCC1)[C@@H]1CCC(=O)N1c1ccccc1
Non-Toxic: all assays above

O=C(NCCc1ccccc1)[C@@H]1CCC(=O)N1Cc1ccc(Br)cc1
Non-Toxic: all assays above

O=C(NCCc1ccccc1)[C@@H]1CCC(=O)N1Cc1ccc(Cl)cc1Cl
Non-Toxic: all assays above

O=C(NCc1ccc(Cl)cc1Cl)[C@@H]1CCC(=O)N1c1ccc(Cl)cc1
Non-Toxic: all assays above
